Test [1] concerns the target T1, human TREX1 (Homo sapiens, UniProt Q9NSU2).
T1 construct: N-terminally His-Tev tagged full length human TREX1; made in house; host or cells: E. coli
T1 sequence (Q9NSU2 1-314): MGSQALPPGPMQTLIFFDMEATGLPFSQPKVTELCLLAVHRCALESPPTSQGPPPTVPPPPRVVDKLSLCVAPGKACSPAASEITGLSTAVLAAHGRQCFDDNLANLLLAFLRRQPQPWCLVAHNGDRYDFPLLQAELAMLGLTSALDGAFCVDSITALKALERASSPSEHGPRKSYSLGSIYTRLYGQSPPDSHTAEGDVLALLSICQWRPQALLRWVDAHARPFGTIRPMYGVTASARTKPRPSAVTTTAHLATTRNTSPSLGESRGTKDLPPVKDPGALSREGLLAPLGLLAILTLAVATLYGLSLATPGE
As to the kind of experiment: hTREX1 Biochemical Assay (fluorescence, dsDNA substrate degradation). Conditions: full length human TREX1, 4 h pre-incubation, 18 h reaction at 25° C. How it is done: (§1) Degradation of the dsDNA liberates free fluorophore to produce a fluorescent signal. Specifically, 7.5 μL of N-terminally His-Tev tagged full length human TREX1 (expressed in E. coli and purified in house) in reaction buffer (50 mM Tris, 150 mM NaCl, 2 mM DTT, 0.1 mg/mL BSA, 0.01% (w/v) Tween-20, 5 mM MgCl2, pH 7.4) was added to a 384-well Black ProxiPlate Plus (PerkinElmer) which already contained compound (150 nL) at varying concentrations as a 10 point dose-response in DMSO. The plate was incubated at 25° C. for 4 hours. Reactions were initiated by adding 7.5 μL of dsDNA substrate (Strand A: 5′ TEX615/GCT AGG CAG 3′; Strand B: 5′ CTG CCT AGC/IAbRQSp (Integrated DNA Technologies)) in reaction buffer. Final concentrations were 4 pM TREX1, 60 nM dsDNA substrate in reaction buffer with 1.0% DMSO (v/v). After 18 hours at 25° C., reactions were quenched by the addition of 2 p L of 500 mM EDTA. Final concentrations in the quenched reaction were 3.5 pM TREX1, 53 nM DNA and 59 mM EDTA in a volume of 17 μL. After a 5-minute incubation at room temperature, plates were read in an EnVision plate reader (PerkinElmer) measuring fluorescence at 615 nm following excitation w/ 570 nm light. IC50 values were calculated by comparing the measured fluorescence at 615 nm relative to control wells pre-quenched w/ EDTA (100% inhibition) and no inhibitor (0% inhibition) controls as using non-linear least square four parameter fits and either Genedata or GraphPad Prism (GraphPad Software, Inc.).

Test [2] concerns the target T2, mouse TREX1 (Mus musculus, UniProt Q91XB0).
T2 construct: N-terminally His-Tev tagged full length mouse TREX1; made in house; host or cells: E. coli
T2 sequence (Q91XB0 1-314): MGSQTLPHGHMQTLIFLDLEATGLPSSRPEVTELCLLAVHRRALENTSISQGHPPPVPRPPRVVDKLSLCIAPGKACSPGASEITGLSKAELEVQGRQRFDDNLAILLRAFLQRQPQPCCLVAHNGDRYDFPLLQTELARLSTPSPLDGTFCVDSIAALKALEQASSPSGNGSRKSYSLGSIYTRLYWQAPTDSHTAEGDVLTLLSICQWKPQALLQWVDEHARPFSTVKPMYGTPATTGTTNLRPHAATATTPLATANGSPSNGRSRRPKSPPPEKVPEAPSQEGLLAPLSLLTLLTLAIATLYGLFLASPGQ
As to the kind of experiment: mTREX1 Biochemical Assay (fluorescence, dsDNA substrate degradation). The settings on record: full length mouse TREX1, 4 h pre-incubation, 18 h reaction at 25° C. How it is done:
as §1, with “Specifically, 7.5 p L of N-terminally” for “Specifically, 7.5 μL of N-terminally”, “full length mouse TREX1 (expressed” for “full length human TREX1 (expressed”, “concentrations were 6 pM TREX1,” for “concentrations were 4 pM TREX1,”, “reaction were 5.3 pM TREX1,” for “reaction were 3.5 pM TREX1,”, “of 17 p L. After a” for “of 17 μL. After a”

The target of test [3] is T3, human TREX2 (Homo sapiens, UniProt Q9BQ50).
T3 construct: human TREX2 (residues M44-A279, expressed in E. coli); made in house; host or cells: E. coli
T3 sequence (Q9BQ50 44-279 isoform Q9BQ50-1): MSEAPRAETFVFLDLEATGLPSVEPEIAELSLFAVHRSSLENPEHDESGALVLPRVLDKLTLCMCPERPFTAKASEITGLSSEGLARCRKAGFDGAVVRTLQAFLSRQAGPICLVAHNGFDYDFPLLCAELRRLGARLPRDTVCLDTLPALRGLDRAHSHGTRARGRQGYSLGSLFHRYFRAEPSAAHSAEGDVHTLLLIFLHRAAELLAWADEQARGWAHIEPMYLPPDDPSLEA
The experiment in a line: hTREX2 Biochemical Assay (selectivity hTREX1 vs hTREX2). Conditions: biochemical selectivity for hTREX1 vs hTREX2. On the procedure: Degradation of the dsDNA liberates free fluorophore to produce a fluorescent signal. Specifically, 7.5 p L of N-terminally His-Tev tagged human TREX2 (residues M44-A279, expressed in E. coli and purified in house) in reaction buffer (50 mM Tris, 150 mM NaCl, 2 mM DTT, 0.1 mg/mL BSA, 0.01% (w/v) Tween-20, 5 mM MgCl2, pH 7.4) was added to a 384-well Black ProxiPlate Plus (PerkinElmer) which already contained compound (150 nL) at varying concentrations as a 10 point dose-response in DMSO. The plate was incubated at 25° C. for 4 hours. Reactions were initiated by adding 7.5 μL of dsDNA substrate (Strand A: 5′ TEX615/GCT AGG CAG 3′; Strand B: 5′ CTG CCT AGC/IAbRQSp (IDT)) in reaction buffer. Final concentrations were 50 pM TREX2, 60 nM dsDNA substrate in reaction buffer with 1.0% DMSO (v/v). After 18 hours at 25° C., reactions were quenched by the addition of 2 μL of 500 mM EDTA. Final concentrations in the quenched reaction mixture were 44 pM TREX2, 53 nM DNA and 59 mM EDTA in a volume of 17 μL. After a 5-minute incubation at room temperature, plates were read in an EnVision plate reader (PerkinElmer) measuring fluorescence at 615 nm following excitation w/ 570 nm light. IC50 values were calculated by comparing the measured fluorescence at 615 nm relative to control wells pre-quenched w/ stop buffer (100% inhibition) and no inhibitor (0% inhibition) controls as using non-linear least square four parameter fits and either Genedata or GraphPad Prism (GraphPad Software, Inc.).

Eleven compounds from patent publication US20240262814A1, “MODULATORS OF TREX1” (Constellation Pharmaceuticals, Inc., priority 2021, published 2024) can be followed below.

In general, IC50 refers to the midpoint of a concentration-inhibition curve. A lower IC50 goes with inhibition by little substance.

Each structure is given as a SMILES string.

On to `Cn1c([C@@H](CF)C(c2ccccc2)c2ccccc2)nc(C(=O)Nc2cnoc2)c(O)c1=O` (single isomer, unassigned) [Example 18 Isomer 1, 2-(3-fluoro-1,1-diphenylpropan-2-yl)-5-hydroxy-N-(isoxazol-4-yl)-1-methyl-6-oxo-1,6-dihydropyrimidine-4-carboxamide], for which the IC50 was 10 to 100 nM in test [1] and above 10 nM in test [2]. Further, in test [3], the “hTREX1 vs hTREX2 selectivity” value is reported as “A (A = <25 fold selective for hTREX1)”.

`CC(c1nc(C(=O)Nc2cnoc2)c(O)c(=O)n1C)C(c1ccccc1Cl)c1ccccc1C#N` (single isomer, unassigned) [Example 10 Isomer 2]: the IC50 in test [1] is 10 to 100 nM; in test [2] it was above 10 nM. The “hTREX1 vs hTREX2 selectivity” value in test [3] is “B (B = 25 to 50 fold selective for hTREX1)”.

On to `CC(c1nc(C(=O)Nc2cnoc2)c(O)c(=O)n1C)C(c1ccccc1)c1cc(F)ccc1C#N` (single isomer, unassigned) [Example 6 Isomer 1], for which the IC50 in test [1] is 1 to 10 nM; in test [2] it was above 10 nM. The “hTREX1 vs hTREX2 selectivity” value in test [3] is “C (C = >50 fold selective for hTREX1)”.

With `C[C@H](c1nc(C(=O)Nc2cnoc2)c(O)c(=O)n1C)[C@H](c1ccccc1)c1ccccc1Cl` (single isomer, unassigned) [Example 2 Isomer 2, 2-(1-(2-chlorophenyl)-1-phenylpropan-2-yl)-5-hydroxy-N-(isoxazol-4-yl)-1-methyl-6-oxo-1,6-dihydropyrimidine-4-carboxamide], the figures for the IC50 in test [1] and in test [2] were 10 to 100 nM and above 10 nM, respectively. The “hTREX1 vs hTREX2 selectivity” value in test [3] is given as “A (A = <25 fold selective for hTREX1)”.

Consider `Cn1c(C(C)(C)C(c2ccccc2)c2ccccc2)nc(C(=O)Nc2cnoc2)c(O)c1=O` [Example B, 5-hydroxy-N-(isoxazol-4-yl)-1-methyl-2-(2-methyl-1,1-diphenylpropan-2-yl)-6-oxo-1,6-dihydropyrimidine-4-carboxamide], for which the IC50 in test [1] is above 100 nM; in test [2], above 10 nM. The “hTREX1 vs hTREX2 selectivity” value in test [3] is reported as “A (A = <25 fold selective for hTREX1)”.

With `CC(c1nc(C(=O)Nc2cnoc2)c(O)c(=O)n1C)C(c1ccc(F)cc1F)c1ccccc1C#N` (single isomer, unassigned) [Example 13 Isomer 1], the IC50 in test [1] and in test [2] was below 1 nM each time. In addition, the “hTREX1 vs hTREX2 selectivity” value in test [3] is given as “C (C = >50 fold selective for hTREX1)”.

For the compound `CC(c1nc(C(=O)Nc2cnoc2)c(O)c(=O)n1C)C(c1ccc(F)cc1F)c1ccccc1C#N` (single isomer, unassigned) [Example 13 Isomer 2], the IC50 was below 1 nM in test [1] and 1 to 10 nM in test [2]. Besides, in test [3], the “hTREX1 vs hTREX2 selectivity” value is given as “C (C = >50 fold selective for hTREX1)”.

In the case of `C[C@H](c1nc(C(=O)Nc2cnoc2)c(O)c(=O)n1C)[C@H](c1ccccc1)c1ccccc1C(F)(F)F` (single isomer, unassigned) [Example 14 Isomer 1, 5-Hydroxy-N-(isoxazol-4-yl)-1-methyl-6-oxo-2-(1-phenyl-1-(2-(trifluoromethyl)phenyl)propan-2-yl)-1,6-dihydropyrimidine-4-carboxamide], the IC50 in test [1] is above 100 nM; in test [2], above 10 nM. The “hTREX1 vs hTREX2 selectivity” value in test [3] is listed as “A (A = <25 fold selective for hTREX1)”.

With `CC(c1nc(C(=O)Nc2cnoc2)c(O)c(=O)n1C)C(c1ccccc1)c1ccc(F)cc1C#N` (single isomer, unassigned) [Example 7 Isomer 1], the IC50 is below 1 nM in test [1] and above 10 nM in test [2]. The “hTREX1 vs hTREX2 selectivity” value in test [3] is “C (C = >50 fold selective for hTREX1)”.

With `C[C@H](c1nc(C(=O)Nc2cnoc2)c(O)c(=O)n1C)C(c1ccccc1Cl)c1ccccc1Cl` (single isomer, unassigned) [Example 15 Isomer 2, 2-(1,1-bis(2-chlorophenyl)propan-2-yl)-5-hydroxy-N-(isooxazol-4-yl)-1-methyl-6-oxo-1,6-dihydropyrimidine-4-carboxamide], the IC50 in test [1] was above 100 nM; in test [2], above 10 nM. Besides, the “hTREX1 vs hTREX2 selectivity” value in test [3] is reported as “A (A = <25 fold selective for hTREX1)”.

`C[C@H](c1nc(C(=O)Nc2cnoc2)c(O)c(=O)n1C)[C@H](c1ccccc1)c1ccc(C(=O)N(C)C)cc1C#N` (single isomer, unassigned) [Example 16 Isomer 3, 2-(1-(2-cyano-4-(dimethylcarbamoyl)phenyl)-1-phenylpropan-2-yl)-5-hydroxy-N-(isoxazol-4-yl)-1-methyl-6-oxo-1,6-dihydropyrimidine-4-carboxamide]: the IC50 was above 100 nM in test [1] and above 10 nM in test [2]. Further, the “hTREX1 vs hTREX2 selectivity” value in test [3] was “A (A = <25 fold selective for hTREX1)”.
